One series deals with Histones 3 and 4. The series can be described thus: Histone acetylation in treated cardiac myocytes (immunoblot). The class given is cell-based, rat. A general note: A western blot detects proteins with antibodies after separation by electrophoresis.
For series [1], the system named is neonatal rat cardiac myocytes. The series can be described thus: Cardiac myocyte morphology and death (shrinkage, detachment, cell size). Format: cell-based. The procedure: A 110 kD protein was detected predominantly in the nuclear fraction. To examine the function of Sir2α in cardiac myocytes, nicotinamide (NAM) and sirtinol, inhibitors of Sir2 (Bitterman, et al. (2002) J. Biol. Chem. 277:45099-45107; Grozinger, et al. (2001) J. Biol. Chem. 276:38837-38843) were employed. Myocytes were also treated with trichostatin A (TSA), an inhibitor of class I and II HDACs (Johnstone (2002) Nat. Rev. Drug Discov. 1:287-299).
To examine whether cardiac myocyte apoptosis due to inhibition of Sir2α is mediated by p53, cardiac myocytes were transduced with adenovirus harboring temperature-sensitive dominant-negative p53 and cultured at 39° C. […] The temperature-sensitive dominant-negative p53 construct works as a dominant-negative only at high temperatures (Regula and Kirshenbaum (2001) J. Mol. Cell. Cardiol. 33:1435-1445). Consistent with this, the cell death inhibitory effect of dominant-negative p53 against NAM treatment was not observed at 32° C.
(§1) Cardiac-specific overexpression of Sir2α was subsequently examined. […] After 7 days, most myocytes were dead in a low-density culture condition. […] It has been shown that pyruvate increases, while lactate decreases, the cellular NAD^+/NADH ratio, thereby positively or negatively regulating the activity of endogenous Sir2α (Fulco, et al. (2003) Mol. Cell 12:51-62).
(§2) Primary Culture of Neonatal Rat Ventricular Myocytes. Primary cultures of cardiac ventricular myocytes were prepared from 1-day-old Crl: (WI) BR-Wistar rats according to standard methods (Tomita, et al. (2003) Circ. Res. 93:12-22). Myocytes were cultured under serum-free conditions for 48 hours before experiments. Cell size and total protein content were obtained (Tomita, et al. (2003) supra).

Series [2] concerns cardiac myocytes. The series can be described thus: Cell Death Detection ELISA (cytoplasmic mono- and oligo-nucleosomes). The following applies: for mono- and oligo-nucleosomes in the cytoplasm (nuclear fragmentation): marker of apoptosis. The class given is cell-based, rat. As to the method: Myocytes were transduced with an adenoviral vector encoding LacZ (Ad-LacZ) or Sir2α (Ad-Sir2α) with or without serum for 48 hours followed by Cell Death ELISA (FIG. 1A). Alternatively, myocytes were transduced Ad-LacZ or Ad-Sir2α with or without H2O2 (100 μM) for 48 hours followed by Cell Death ELISA (FIG. 1B). […] Mean OD value of control was designated as 1. Each column represents mean from 3 different culture preparations.
(§3) Subsequently, it was determined whether cardiac myocyte death by Sir2α inhibition was due to apoptosis. […] Similar results were obtained using TUNEL staining. To examine whether activation of caspase-3 was involved in myocyte death induced by NAM and TSA, the effect of DEVD-CHO, a cell permeable inhibitor of caspase-3, upon myocyte death was examined.
as §1, §2
Assays for Apoptosis. Histone-associated DNA fragments were quantitated by the Cell Death Detection ELISA (ROCHE; Yamamoto, et al. (2003) J. Clin. Invest. 111:1463-1474).
(An ELISA detects its analyte on a solid surface through an enzyme-linked reagent.)

Series [3] relates to cardiac myocytes. The series can be described thus: TUNEL staining of cultured cardiac myocytes. Format: cell-based, rat. To be noted: for TUNEL positive myocytes: compound alone.
Method: Subsequently, it was determined whether cardiac myocyte death by Sir2α inhibition was due to apoptosis. […] To examine whether activation of caspase-3 was involved in myocyte death induced by NAM and TSA, the effect of DEVD-CHO, a cell permeable inhibitor of caspase-3, upon myocyte death was examined.
Primary Culture of Neonatal Rat Ventricular Myocytes. […] Myocytes were cultured under serum-free conditions for 48 hours before experiments.
The next series has as its system caspase-3. The series can be described thus: Caspase-3 cleavage in cardiac myocytes. The class given is cell-based, rat. To be noted: treated cardiac myocytes. The procedure: as §3
To further confirm that inhibition of endogenous Sir2α stimulates cardiac myocyte apoptosis, the effects of a dominant-negative Sir2α were examined. […] The level of cleaved caspase-3 was higher in dominant-negative Sir2α-transduced myocytes than in LacZ-transduced cells.
Immunoblot Analysis. Nuclear fractions were prepared as described (Tomita, et al. (2003) supra). Whole-cell lysates were obtained using Lysis Buffer A, containing 150 mmol/L NaCl, 50 mmol/L Tris, pH 7.5, 0.1 mmol/L Na3VO4, 1 mmol/L NaF, 0.5 mmol 4-(2-aminoethyl)benzenesulfonyl fluoride hydrochloride, 1% NONIDET P-40, 0.1% sodium dodecyl sulfate, 0.5% deoxycholic acid, 0.5 μg/mL leupeptin, and 0.5 μg/mL aprotinin. For immunoblotting, the antimurine Sir2α antibody (1:10 000) was used.

Series [4] concerns p53. The series can be described thus: p53-Luc reporter gene assay. Format: cell-based, rat. To be noted: treated myocytes. A general note: In a reporter assay the amount or activity of a reporter protein is the signal.
Method: Transfection and Luciferase Assays. One million cells were transfected with 4 μg of plasmid. The transcriptional activity of p53 was evaluated using p53-Luc (2 pg) containing 15 copies of specific p53 DNA-binding sequence ([sequence]). A plasmid carrying the β-galactosidase gene (SV40-β-gal; 1 μg) was cotransfected. One microgram of expression plasmids pcDNA3.1, pcDNA3.1-Sir2α, or pcDNA 3.1-DN-Sir2α was employed.
Series [5] relates to p53. The series can be described thus: Immunoblot of nuclear fractions with anti-acetylated p53 antibodies. The class given is cell-based, rat. The following applies: for Acetylation of p53 at K320 / Acetylation of p53 at K373/382: nuclear fractions of treated myocytes; for total amount of p53: treated myocytes.
From the text: To examine whether the status of acetylation in p53 is affected by NAM or TSA in cardiac myocytes, nuclear fractions were subjected to immunoblot analysis with anti-acetylated p53 antibodies.
Anti-Sir2α antibody, anti-acetyl-p53 (Lys 320 and Lys 373/382) antibodies and anti-acetyl histone H3 and H4 antibodies were purchased from Upstate. Sirtinol and DEVD-CHO were from CALBIOCHEM, and Trichostatin A (TSA) was from SIGMA.
The next series concerns myocytes. The following applies: treatment with resveratrol; Pillai et al. 2005; cited from earlier work.
For the next series, the system named is mouse hearts. Format: in vivo, mice. Set-up: LV contraction (EF, % FS): dose or concentration left out as unconfirmed. The procedure: Tg-Sirt2α (n=6) and NTg (n=4) mice from line 40 were treated with ip injection of 10 mg/kg of paraquat (PQ) for 2 weeks. LV ejection fraction (EF, FIG. 8A) and % fractional shortening (% FS, FIG. 8B) of Tg-Sirt2α and NTg mice after PQ treatment is shown. […] Immunoblot analyses of catalase were conducted, using cardiac myocytes transduced with adenovirus vectors harboring constitutively actively FOXO1a (F-CA), dominant negative FOXO1a (F-DN), or Sirt2α. n=3-4. Values are presented as means±SE.
To this end, mice were treated for 14 days with paraquat, an inducer of oxidative stress. […] The paraquat-induced increases in oxidative stress were abolished in Tg-Sirt1 line 40 (FIG. 8D). […] Paraquat-induced increases in expression of catalase, an antioxidant, were greater in Tg-Sirt1 than in NTg hearts (FIG. 8E).

The text below walks through data of US20100021924A1, “Transgenic animal and methods for decreasing cardiac cell death via cardiac-specific sir2alpha overexpression” (priority 2005, published 2010).

“Also recorded” adds a separate entry of the source.

For `CC(/C=C/C(=O)NO)=C\[C@@H](C)C(=O)c1ccc(N(C)C)cc1` [TSA, trichostatin A], the “acetylation of Histones 3 and 4” value in the series on Histones 3 and 4 is “increased acetylation of Histones 3 and 4”. For the same molecule, the myocyte death result in series [1] (at high doses) is listed as “caused death in some myocytes at high doses”. For the same molecule, the cell size result in series [1] (treated cardiac myocytes) is listed as “modestly increased cell size”. The “mono- and oligo-nucleosomes in the cytoplasm (nuclear fragmentation)” value in the series on cardiac myocytes [2] is given as “significantly increased nuclear fragmentation; also recorded: not as potent as NAM”. Besides, the TUNEL positive myocytes result in the series with cardiac myocytes [3] was “modest increase in TUNEL-positive myocytes”. In the series on caspase-3, the “cleavage of caspase-3” value is given as “did not”. In addition, the “activity of p53-Luc” value in the series on p53 [4] was “failed to activate”. In the series with p53 [5], the “Acetylation of p53 at K320” value is reported as “not”, the “Acetylation of p53 at K373/382” value is “not” and the “total amount of p53” value is on record as “Neither NAM nor TSA significantly changed”.

On to `NC(=O)c1cccnc1` [NAM, nicotinamide], for which the “acetylation of Histones 3 and 4” value in the series with Histones 3 and 4 is “increased acetylation of Histones 3 and 4”. For the same molecule, the “cell shrinkage and detachment, consistent with apoptosis” value in [1] (treatment for 48 hours) was “dose-dependent increases in cell shrinkage and detachment”. For the same molecule, in the series with cardiac myocytes [2], the “mono- and oligo-nucleosomes in the cytoplasm (nuclear fragmentation)” value is “significantly increased”. Besides, the TUNEL positive myocytes result in the series on cardiac myocytes [3] was “increases in TUNEL positive myocytes”. Also, the “cleavage of caspase-3” value with caspase-3 was “induced cleavage of caspase-3”. The “activity of p53-Luc” value in the series with p53 [4] was “dose-dependently increased”. Moreover, in the series with p53 [5], the “Acetylation of p53 at K320” value is listed as 2.8 fold, the “Acetylation of p53 at K373/382” value was 1.8 fold and the “total amount of p53” value is on record as “Neither NAM nor TSA significantly changed”.

For the molecule `Oc1ccc(C=Cc2cc(O)cc(O)c2)cc1` [resveratrol], the “myocyte cell death in vitro” value with myocytes was “prevents myocyte cell death”.

For `CC(NC(=O)c1ccccc1/N=C/c1c(O)ccc2ccccc12)c1ccccc1` (stereo not drawn) [sirtinol], in the series on cardiac myocytes [2], the “mono- and oligo-nucleosomes in the cytoplasm (nuclear fragmentation)” value is listed as “significantly increased”. Also, the “cleavage of caspase-3” value with caspase-3 was “induced cleavage of caspase-3”.

On to `C[n+]1ccc(-c2cc[n+](C)cc2)cc1` [Paraquat, paraquat], for which the “LV contraction (EF, % FS)” value with mouse hearts is “significantly reduced LV contraction”. The “oxidative stress (8-OHdG staining, MDA content)” value with mouse hearts (NTg mouse hearts, ip 10 mg/kg, 14 days) was “significantly increased the extent of oxidative stress”.

With DEVD-CHO, the “TUNEL positive myocytes caused by NAM” value in the series on cardiac myocytes [3] (effect of caspase-3 inhibitor on NAM-induced death) is “prevented increases in TUNEL positive myocytes”. In addition, the “TUNEL-positive myocytes due to TSA” value with cardiac myocytes [3] (effect of caspase-3 inhibitor on TSA-induced death) was “did not affect”.

In the case of `CC(O)C(=O)O` (stereo not drawn) [lactate], in the series on cardiac myocytes [2] (10 mM, 48 hours (FIG. 1C)), the “cytoplasmic accumulation of mono- and oligo-nucleosomes induced by serum starvation” value is “stimulated it”.
